Measured values as given in patent US20220324770A1, “NITRIFICATION INHIBITORS” (The University of Melbourne, priority 2019, published 2022).

Assays:
Dahlen soil = assay: Soil microcosm incubation (nitrification of applied ammonium), Dahlen soil; conditions: for NOx−—N accumulation rate / NOx−—N accumulation rate: effect of temperature (25° C. vs 35° C.): 28-day incubation; for Nitrified NH4+—N (%) Day 3 / Nitrified NH4+—N (%) Day 7 / Nitrified NH4+—N (%) Day 14 / Nitrified NH4+—N (%) Day 21 / Nitrified NH4+—N (%) Day 28: 10 mol %
Description: (§1) The soil used in this study was collected from four different locations in Victoria, Australia: (i) a wheat cropping soil from Horsham (36° 45′S, 142° 07′ E), (ii) a rotational cropping soil from Dahlen (36° 37′S, 142° 09′ E), (iii) a vegetable growing soil from Clyde (38° 08′S, 145° 20′ E), and (iv) a pasture soil from Terang (38° 15′S, 142° 52′E). In addition, a sugarcane cropping soil from South Johnstone in northern Queensland (17° 34′S, 145° 57′ E) was also studied. The water content of the soil was calculated before commencing each experiment, from samples that were oven-dried to constant weight. The soil's water-filled pore space (WFPS) was in the range 52%-61%, which is within the recommended 50-70% range for microbial activity due to oxygen and nutrient availability (Fichtner, T., et al., Applied Sciences, 2019, 9, 496).
(§2) Soil microcosm incubations were carried out in 250 ml polypropylene specimen containers (Sarstedt, Germany), containing 18.24 g oven dry-weight equivalent of soil. Microcosms were re-wetted and pre-incubated at the test temperature for seven days to revive soil microbial activity. Following pre-incubation, the remaining volume to reach the desired water-filled pore spaces (WFPS %) was applied as one of the following treatment solutions; (NH4)2SO4(Control), (NH4)2SO4+DMPP, or (NH4)2SO4+one of Compounds 1-23. Each treatment was applied in triplicate per soil type, so that n=3 at each time point.
(§3) Treatment solutions were prepared such that each microcosm received (NH4)2SO4 at a rate of 100 mg N per kg soil, Compounds 1-23 at 10 mol % of applied N, or DMPP at one of 1.5, 3.6 or 10 mol % of applied N, referred to as L-DMPP, M-DMPP or H-DMPP respectively.
(§4) The microcosms were incubated for 0, 3, 7, 14, 21 or 28 days, where day 0 samples were extracted following 1-hour incubation post-treatment. Soil microcosms were aerated and moisture levels were replenished based on weight loss every few days throughout the incubation period.
(§5) At the end of each incubation period, soil microcosms were destructively sampled by treatment with 2M KCl (100 mL). After shaking for 1 hour, soil-KCl solutions were filtered (Whatman 42) before storing the filtrates at −20° C. until the conclusion of the experiment. All KCl extracts were then analysed by Segmented Flow Analysis (San++, Skalar, Breda, The Netherlands) for the concentration of nitrogen from ammonium (NH4^+—N) and nitrogen from NO3 and NO2 (NOx^−—N) after appropriate dilutions. Results are reported as the mean of three replicates, errors reported are standard errors of the mean.
(§6) Nitrification calculations were performed as previously reported (Aulakh, M., et al., Biology and Fertility of Soils 2001, 33, 258-263; Mahmood, T., et al., Soil Research 2017, 55, 715-722) without correction for the initial baseline concentrations of NH4^+—N or NO3^− N in the untreated soil. For each treatment nitrified NH4^+—N (%) was calculated according to eqn. 1:
(§7) where [NH4^+—N]0 is the NH4^+—N concentration (in mg N kg^−1 soil) of the soil on day 0 and [NH4^+—N]t is the NH4^+—N concentration (in mg N kg^−1 soil) of the soil at a given time point t.
(§8) NOx^−—N accumulation rates (mg NOx^−—N/kg soil/day) over the 28-day incubation experiments were calculated for each treatment as in the following (eqn. 2):
(§9) [NOx^−—N]t=0 and [NOx^−—N]t=28 are the combined concentrations of nitrite (NO2) and nitrate (NO3) in the soil (in mg N kg^−1 soil) on day 0 and day 28, respectively.

Horsham soil = assay: Soil microcosm incubation (nitrification of applied ammonium), Horsham soil
Description: as §1, §2, §3, §4, §5, §6, §7, §8, §9

South Johnstone soil = assay: Soil microcosm incubation (nitrification of applied ammonium), South Johnstone soil; conditions: South Johnstone soil, 25° C., days 21 and 28
Description: as §1, §2, §3, §4, §5, §6, §7

[1] = Dahlen soil, 25° C., after 28 days
[2] = Dahlen soil, 35° C., after 28 days
[3] = Table 4, Dahlen soil pH 7.3, 25° C.
[4] = Table 4, Dahlen soil pH 7.3, 35° C.
[5] = Horsham soil pH 8.8, 25° C., inhibitors 10 mol % of applied N
[6] = Horsham soil pH 8.8, 25° C., 10 mol %
[7] = Horsham soil pH 8.8, 35° C., 10 mol %
[8] = Horsham soil, 25° C., after 28 days
[9] = Dahlen soil, 25° C., Table 5 test
[10] = Table 5 (further comparative test), Dahlen soil pH 7.3, 25° C.
[11] = Table 5, Dahlen soil pH 7.3, 25° C.
[12] = Table 5, Dahlen soil pH 7.3, 35° C.

SMILES	NOx−—N accumulation rate (Dahlen soil; Dahlen soil, 25° C.)	retaining NH4+—N vs uninhibited control treatment and DMPP (Dahlen soil; [1])	NOx−—N accumulation rate: effect of temperature (25° C. vs 35° C.) (Dahlen soil; Dahlen soil)	NOx−—N accumulation rate (Dahlen soil; Dahlen soil, 35° C.)	retaining NH4+ vs both DMPP treatment and control treatment (Dahlen soil; [2])	Nitrified NH4+—N (%) Day 3 (Dahlen soil; [3])	Nitrified NH4+—N (%) Day 7 (Dahlen soil; [3])	Nitrified NH4+—N (%) Day 14 (Dahlen soil; [3])	Nitrified NH4+—N (%) Day 21 (Dahlen soil; [3])	Nitrified NH4+—N (%) Day 28 (Dahlen soil; [3])	Nitrified NH4+—N (%) Day 3 (Horsham soil; [5])	Nitrified NH4+—N (%) Day 7 (Horsham soil; [6])	Nitrified NH4+—N (%) Day 14 (Horsham soil; [6])	Nitrified NH4+—N (%) Day 21 (Horsham soil; [6])	Nitrified NH4+—N (%) Day 28 (Horsham soil; [6])	Nitrified NH4+—N (%) Day 3 (Horsham soil; [7])	Nitrified NH4+—N (%) Day 7 (Horsham soil; [7])	Nitrified NH4+—N (%) Day 14 (Horsham soil; [7])	Nitrified NH4+—N (%) Day 21 (Horsham soil; [7])	Nitrified NH4+—N (%) Day 28 (Horsham soil; [7])	also measured
CCCCn1cc(CCC)nn1 [Compound 13, 1-butyl-4-propyl-1H-1,2,3-triazole]	2.5 mg NOx−—N/kg soil/day	performed statistically better	least affected by the temperature change	2.4 mg NOx−—N/kg soil/day	performed statistically better	10.6 ± 3.7%	22.2 ± 50.2%	24.9 ± 59.3%	32.6 ± 2.4%	41.5 ± 1.2%	17.7 ± 3.9%	23.4 ± 5.4%	40.0 ± 4.3%	47.2 ± 4.3%	72.2 ± 4.8%	3.5 ± 6.4%	18.7 ± 5.5%	48.0 ± 5.3%	59.3 ± 10.3%	61.2 ± 14.2%	Nitrified NH4+—N (%) Day 3 (Dahlen soil; [4]): −1.2 ± 1.1%; Nitrified NH4+—N (%) Day 7 (Dahlen soil; [4]): 3.5 ± 1.3%; Nitrified NH4+—N (%) Day 14 (Dahlen soil; [4]): 9.2 ± 1.1%; Nitrified NH4+—N (%) Day 21 (Dahlen soil; [4]): 34.2 ± 2.4%; Nitrified NH4+—N (%) Day 28 (Dahlen soil; [4]): 33.6 ± 1.3%; rate of NOx−—N accumulation (Horsham soil; Horsham soil, 25° C., 28-day incubation): 2.8 mg NOx−—N/kg soil/day; retaining NH4+ vs uninhibited control treatment (Horsham soil; [8]): performed statistically better; nitrification rates vs uninhibited control treatment (Horsham soil; Horsham soil, 35° C.): lower nitrification rates than the uninhibited control treatment; retaining NH4+ and preventing NOx production (statistics vs control) (Horsham soil; Horsham soil, 35° C.): performed statistically better; rate of NOx−—N accumulation (Horsham soil; Horsham soil, 35° C., 28-day incubation): 2.8 mg NOx−—N/kg soil/day; NH4+—N consumption (Horsham soil; Horsham soil, 35° C., after 28 days): 61%
CCCCc1cn(CCOC)nn1 [Compound 14, 1-(2-methoxyethyl)-4-butyl-1H-1,2,3-triazole]											23.8 ± 3.0%	38.7 ± 5.3%	84.3 ± 5.6%	93.4 ± 6.2%	100 ± 3.2%	13.2 ± 5.4%	15.7 ± 5.7%	39.8 ± 6.6%	83.5 ± 7.2%	79.7 ± 9.4%	NOx−—N accumulation: effect of temperature (25° C. vs 35° C.) (Horsham soil; Horsham soil, 28-day incubation): lower at the elevated temperature
C#CCCn1cc(CCC)nn1 [Compound 17, 1-(3-butyn-1-yl)-4-propyl-1H-1,2,3-triazole]	4.7 mg NOx−—N/kg soil/day	performed statistically better	largest reduction in the accumulation rate	2.4 mg NOx−—N/kg soil/day	performed statistically better	3.0 ± 1.3%	10.4 ± 3.6%	12.1 ± 3.2%	22.2 ± 5.0%	36.4 ± 6.8%	13.5 ± 4.7%	30.6 ± 5.5%	35.1 ± 5.1%	43.9 ± 5.7%	65.8 ± 5.2%	−0.8 ± 3.4%	8.5 ± 2.8%	37.2 ± 2.3%	75.7 ± 5.4%	76.2 ± 2.1%	ammonia consumption (Dahlen soil; [2]): 38%; Nitrified NH4+—N (%) Day 3 (Dahlen soil; [4]): 6.3 ± 2.2%; Nitrified NH4+—N (%) Day 7 (Dahlen soil; [4]): 8.8 ± 1.9%; Nitrified NH4+—N (%) Day 14 (Dahlen soil; [4]): 17.7 ± 2.6%; Nitrified NH4+—N (%) Day 21 (Dahlen soil; [4]): 38.0 ± 2.8%; Nitrified NH4+—N (%) Day 28 (Dahlen soil; [4]): 37.6 ± 3.1%; retaining NH4+ vs uninhibited control treatment (Horsham soil; [8]): performed statistically better; nitrification rates vs uninhibited control treatment (Horsham soil; Horsham soil, 35° C.): lower nitrification rates than the uninhibited control treatment
CCCc1cn(CC(=O)OCC)nn1 [Compound 19, ethyl 2-(4-propyl-1H-1,2,3-triazol-1-yl)-acetate]																					effectiveness among the treatments (NH4+—N retention, NOx−—N growth) (South Johnstone soil): least effective
C=CCOC(=O)Cn1cc(CCC)nn1 [Compound 20, prop-2-en-1-yl 2-(4-propyl-1H-1,2,3-triazol-1-yl)-acetate]																					retaining NH4+—N levels by day 28 vs fertilised control (and DMPP) (Dahlen soil; [9]): performed statistically better than the fertilised control; retaining NH4+—N vs (NH4)2SO4-treated control by day 28 (Dahlen soil; Dahlen soil, 35° C., Table 5 test): remain highly effective; Nitrified NH4+—N (%) Day 3 (Dahlen soil; [10]): 1.9 ± 1.3%; Nitrified NH4+—N (%) Day 7 (Dahlen soil; [11]): 8.0 ± 0.6%; Nitrified NH4+—N (%) Day 14 (Dahlen soil; [11]): 15.2 ± 1.2%; Nitrified NH4+—N (%) Day 21 (Dahlen soil; [11]): 26.0 ± 2.1%; Nitrified NH4+—N (%) Day 28 (Dahlen soil; [11]): 31.8 ± 4.5%; Nitrified NH4+—N (%) Day 3 (Dahlen soil; [12]): 16.6 ± 4.5%; Nitrified NH4+—N (%) Day 7 (Dahlen soil; [12]): 5.0 ± 4.3%; Nitrified NH4+—N (%) Day 14 (Dahlen soil; [12]): 17.7 ± 3.8%; Nitrified NH4+—N (%) Day 21 (Dahlen soil; [12]): 17.1 ± 3.6%; Nitrified NH4+—N (%) Day 28 (Dahlen soil; [12]): 45.6 ± 8.3%
C#CCNC(=O)Cn1cc(CCC)nn1 [Compound 23, prop-2-yn-1-yl 2-(4-propyl-1H-1,2,3-triazol-1-yl)-acetamide]																					retaining NH4+—N levels by day 28 vs fertilised control (and DMPP) (Dahlen soil; [9]): performed statistically better; Nitrified NH4+—N (%) Day 3 (Dahlen soil; [10]): 4.8 ± 2.9%; Nitrified NH4+—N (%) Day 7 (Dahlen soil; [11]): 15.7 ± 1.5%; Nitrified NH4+—N (%) Day 14 (Dahlen soil; [11]): 30.3 ± 0.8%; Nitrified NH4+—N (%) Day 21 (Dahlen soil; [11]): 35.9 ± 1.2%; Nitrified NH4+—N (%) Day 28 (Dahlen soil; [11]): 60.5 ± 1.0%; Nitrified NH4+—N (%) Day 3 (Dahlen soil; [12]): 15.6 ± 6.4%; Nitrified NH4+—N (%) Day 7 (Dahlen soil; [12]): 8.8 ± 5.6%; Nitrified NH4+—N (%) Day 14 (Dahlen soil; [12]): 24.0 ± 6.7%; Nitrified NH4+—N (%) Day 21 (Dahlen soil; [12]): 41.7 ± 4.7%; Nitrified NH4+—N (%) Day 28 (Dahlen soil; [12]): 64.6 ± 4.9%
